What was measured:
sheep [1] = assay: Invasive cardiac hemodynamic measurements in experimental sheep model; assay type: in vivo
Source text: An experimental sheep model, developed for invasive hemodynamic measurements under various conditions, was used to study the potentiating and synergistic effects of inosine on continuous adenosine infusion. The model is described in Tanoue et al., “Ischemic preconditioning reduces unloaded myocardial oxygen consumption in an in-vivo sheep model,” Cardiovascular Research 55: 633-641 (2002) and Xia et al., “Remote preconditioning lessens the deterioration of pulmonary function after repeated coronary artery occlusion and reperfusion,” Canadian Journal of Anesthesia 50: 481-488 (2003), the disclosures of which are incorporated herein by reference in their entireties. A total of twelve animals were studied. Briefly, the sheep were premedicated, anesthetized, intubated, and ventilated with positive pressure ventilation. Electrocardiogram (ECG) was continuously followed. The carotid artery was surgically denuded to place an arterial line for arterial blood pressure (ABP) measurement. Denuding of the jugular vein was performed to place a double or triple lumen central venous line for measurement of central venous pressure (CVP) and fluid and drug administration. A small left thoracotomy was made in the third or fourth intercostal space and the heart suspended in a pericardial cradle. A flow probe (transonic probe) was placed around the pulmonary artery and around the left circumflex coronary artery. A catheter was inserted in the pulmonary artery to determine pulmonary arterial pressure. In addition, 9 animals received a conductance catheter which was positioned in the left and right ventricle and preload-afterload variations were made by occlusion and/or constriction of the caval veins and/or pulmonary artery and/or aorta in order to study myocardial contractility. Regional blood flow measurements were also performed using a colored microsphere injection technique. Each animal served as its own control. The sequence of measurements was always the same: 1) under baseline conditions; 2) under adenosine; 3) 15 minutes stabilization, then new measurements under baseline conditions; 4) measurements under bidosine. From the first three animal experiments, it was determined that adenosine 200 μg/kg/min was the optimal single agent adenosine dose, i.e., the dose ensuring the highest coronary flow (adenosine max). Therefore, all further experiments compared this dose to the BIDOSINE formulation containing 100 μg/kg/min (that is, half adenosine max) adenosine+500 μg/kg/min inosine (A:I ratio of 1:5).

sheep [2] = assay: Regional myocardial blood flow by colored microsphere technique in sheep; assay type: in vivo; details: mean of 9 experiments, after 5 minutes of adenosine or BIDOSINE
Source text: Regional blood flows, as well as potential changes in the distribution of coronary flow into different parts of the myocardium, were also studied. This was done by using a colored microsphere technique, essentially as described in Muller et al., “Developmental changes in cerebral autoregulatory capacity in the fetal sheep parietal cortex,” J Physiol. 539(Pt 3):957-67 (2002); Miller et al., “Physiological evidence for arteriovenous anastomoses in the uterine circulation of late-pregnant ewes,” Clin. Exp. Pharmacol. Physiol. 25(2):92-8 (1998); Herijgers et al., “Changes in organ perfusion after brain death in the rat and its relation to circulating catecholamines,” Transplantation 62: 330-335 (1996); and Wouters et al., “Ischemic event characteristics determine the extent of myocardial stunning in conscious dogs,” Basic Res. Cardiol. 91(2):140-6 (1996), the disclosures of which are incorporated herein by reference in their entireties. Briefly, colored microspheres were injected at baseline, and after 5 minutes of adenosine or BIDOSINE administration. At necropsy, tissue was digested and the number of colored microspheres per gram of wet weight in a tissue sample determined. By comparing these numbers with the number of microspheres in a reference sample drawn from the aorta at a predetermined rate, we could quantify the absolute flow rate to the tissue sample at the moment when the microspheres were injected. The statistical analysis was performed by the same methodology as for the hemodynamic parameters. Values are expressed in ml/min/g tissue (wet weight). LV=left ventricle; RV=right ventricle; endo=endocardial half; epi=epicardial half. As in Table 2, the numbers reflect the sequence of experimental conditions, as follows: 1) under baseline conditions; 2) under adenosine; 3) 15 minutes stabilization, then new measurements under baseline conditions; 4) measurements under bidosine.

male Wistar rats = assay: Reperfusion injury after myocardial ischemia in the rat, repeated with 45 minute ischemia; assay type: in vivo; details: day 30 post ischemia, preliminary
Experimental: The experiment was repeated with 45 minute period of ischemia, and with the addition of a further BIDOSINE experimental group. The BIDOSINE composition for this additional group comprised adenosine, administered at 0.01 mg/kg/min ( 1/10 its single agent maximally effective dose) with inosine 0.20 mg/kg/min, for an A:I weight ratio of 1:20. Preliminary results (n=5 per group) of this ongoing study are given in Table 5, below, reporting day 30 post ischemia results.

[3] = tested on: rat model of spinal cord ischemia; assay: Photothrombotic model of spinal cord ischemia in rats, behavioral studies; assay type: in vivo
Experimental: BIDOSINE administration was compared to adenosine (0.1 mg/kg/min), administered by continuous i.v. infusion from thirty to sixty minutes after the injury (n=13 in each group). As controls, a group of animals (n=11) received a 60-min IV perfusion of saline solution starting 30 min after the injury. The potential neuroprotective effect of the compound was evaluated by performing various behavioral studies. In these experiments, the photothrombotic model of ischemia was chosen over the occlusion model (aortic clamp), since it better reproduces the pathophysiology of an ischemic insult. The photothrombotic model has the advantages of (i) causing a […] processes that more perfectly mimics the pathophysiological conditions observed in clinics, and (ii) affecting a controlled volume of nervous tissue. Moreover, the location of the lesion can be restricted to precise regions (three to four […]). The injury is created using a beam of a xenon lamp conveyed by fiberoptics on the selected vertebral site. The irradiation is performed over the translucent dorsal surface of the vertebral laminae. The green light (560 nm) induces the excitation of the previously injected dye (Rose Bengal) present in the spinal cord microvasculature. […]

[4] = cited from earlier work
human patients = details: cited from earlier work
[5] = adenosine 200 μg/kg/min or BIDOSINE (adenosine 100 + inosine 500 μg/kg/min)
[6] = adenosine 200 μg/kg/min or BIDOSINE (adenosine 100 + inosine 500 μg/kg/min), listed as Adenosine

For `Nc1ncnc2c1ncn2[C@@H]1O[C@H](CO)[C@@H](O)[C@H]1O` [adenosine], the “Cardiac output (co), mean” value (sheep [1]; [5]) was 4943, the “Central venous pressure (CVP), mean” value (sheep [1]; [5]) was 9.4875 and the “Coronary flow (cf), mean” value (sheep [1]; [5]) was 129.55. For the same compound, the “Heart rate (HR), mean” value (sheep [1]; [5]) was 90.6375, the “Left ventricular dP/dtmax (contractility) (dpmax), mean” value (sheep [1]; [5]) was 1077.714 and the “Left ventricular dP/dtmin (relaxation) (dpmin), mean” value (sheep [1]; [5]) was “worsened significantly more”. For the same compound, the “Mean arterial blood pressure (ABPm), mean” value (sheep [1]; [5]) was “decreased significantly more”, the “Mean pulmonary arterial pressure (pupm), mean” value (sheep [1]; [5]) was 16.425 and the “Systolic left ventricular pressure (LVPsys), mean” value (sheep [1]; [5]) was “decreased significantly more”. For the same compound, the “Left ventricular dP/dtmin (relaxation) (dpmin), mean” value (sheep [1]; [6]) was −821.286, the “Mean arterial blood pressure (ABPm), mean” value (sheep [1]; [6]) was 43.2625 and the “Systolic left ventricular pressure (LVPsys), mean” value (sheep [1]; [6]) was 59.35. For the same compound, the “left ventricular relaxation constant (Tau) compared with baseline” value (sheep [1]; adenosine at adenosine max or BIDOSINE A:I 1:5, ANOVA p=0.001) was “significantly shorter”, the coronary blood flow (sheep [1]; continuous i.v. infusion, adenosine 200 μg/kg/min or BIDOSINE (100 + 500 μg/kg/min)) was 129.5 cms/sec and the “optimal single agent adenosine dose, ensuring the highest coronary flow (adenosine max)” value (sheep [1]; from the first three animal experiments) was 200 µg/kg/min. For the same compound, the “Regional blood flow, left ventricle endocardial half (Lvendo), mean” value (sheep [2]) was 1.763 ml/min/g tissue (wet weight), the “Regional blood flow, left ventricle epicardial half (Lvepi), mean” value (sheep [2]) was 2.039 ml/min/g tissue (wet weight) and the “Regional blood flow, right ventricle endocardial half (RVendo), mean” value (sheep [2]) was 2.227 ml/min/g tissue (wet weight). For the same compound, the “Regional blood flow, right ventricle epicardial half (RVepi), mean” value (sheep [2]) was 1.728 ml/min/g tissue (wet weight), the “Regional blood flow, left ventricle endocardial half (Lvendo), mean” value (sheep [2]; listed as Adenosine) was 1.764 ml/min/g tissue (wet weight) and the “left ventricular EF (LVEF)” value (male Wistar rats) was 45%. It also gave an EDV (male Wistar rats; n=5 per group) of 0.47, an ESV (male Wistar rats; n=5 per group) of 0.26 and an LVEF (male Wistar rats; n=5 per group) of 0.45. For the same compound, the “behavioral recovery (motor, sensory and reflex scores), all tested functions” value ([3]; BIDOSINE 1:5 (adenosine 0.05 + inosine 0.25 mg/kg/min) or adenosine 0.1 mg/kg/min i.v. after injury, follow-up to day 10) was “best efficacy until day 4”, the “gross and fine motor functional outcomes (open field, inclined plane, grid navigation)” value ([3]; compared to saline controls, to day 10, two way ANOVA p<0.001) was “Statistically significant improvements over control” and the half life [4] was “several seconds”. For the same compound, the side effects (human patients; continuous intravenous infusion 140 μg/kg/min for 6 minutes) was “frequent side effects” and the adverse reactions (human patients; dosage of 70 μg/kg/min or less) was “very few and of mild intensity”.

Source: patent publication US20080056993A1, “Compositions, Methods and Kits Using Adenosine and Inosine in Combination for Diagnosis and Treatment” (ADENOBIO N.V., priority 2006, published 2008)
